From ChEMBL document CHEMBL1201862, “PubChem BioAssay data set” (2004)
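Results reflect a 48-hour exposure of cells in 96-well plates to compound at five concentrations. At the GI50, growth is halved.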 Activity calls are given as the source filed them. Rule as the data show it: active = GI50 up to about 1.1 µM and inactive = higher.

Assays:
Test in all cases: inhibition of tumour cell growth, NCI panel, 48 h
[1] = test system: HT-29
[2] = test system: SF-268
[3] = test system: MDA-N
[4] = test system: Hs-578T
[5] = test system: NCI-H226
[6] = test system: MDA-MB-435
[7] = test system: NCI-H460
[8] = test system: M14
[9] = test system: HL-60
[10] = test system: A498
[11] = test system: TK-10
[12] = test system: SNB-19
[13] = test system: NCI-H522
[14] = test system: UACC-62
[15] = test system: U-251
[16] = test system: RXF 393
[17] = test system: UO-31
[18] = test system: A549
[19] = test system: SNB-75
[20] = test system: SK-MEL-5
[21] = test system: MDA-MB-231
[22] = test system: LOX IMVI
[23] = test system: DU-145
[24] = test system: ACHN
[25] = test system: HCT-116
[26] = test system: SN12C
[27] = test system: MOLT-4
[28] = test system: KM12
[29] = test system: EKVX
[30] = test system: OVCAR-4
[31] = test system: 786-0
[32] = test system: K562
[33] = test system: CCRF-CEM
[34] = test system: BT-549
[35] = test system: OVCAR-8
[36] = test system: SK-MEL-2
[37] = test system: SK-MEL-28
[38] = test system: COLO 205
[39] = test system: CAKI-1
[40] = test system: IGROV-1
[41] = test system: OVCAR-3
[42] = test system: Malme-3M
[43] = test system: PC-3
[44] = test system: SW-620
[45] = test system: T47D
[46] = test system: NCI-H23
[47] = test system: HOP-92
[48] = test system: NCI/ADR-RES
[49] = test system: MCF7
[50] = test system: SF-295
[51] = test system: OVCAR-5
[52] = test system: UACC-257
[53] = test system: HCT-15
[54] = test system: SK-OV-3
[55] = test system: HOP-62

SMILES: C1=C2C3=[N+](CCCC3)CC2Cc2sccc21 (stereo not given)
- GI50 [1]: 53.2 µM (inactive)
- GI50 [2]: > 100 µM (inactive)
- GI50 [3]: > 100 µM (inactive)
- GI50 [4]: > 100 µM (inactive)
- GI50 [5]: > 100 µM (inactive)
- GI50 [6]: > 100 µM (inactive)
- GI50 [7]: 52.7 µM (inactive)
- GI50 [8]: > 100 µM (inactive)
- GI50 [9]: > 100 µM (inactive)
- GI50 [10]: 47.6 µM (inactive)
- GI50 [11]: > 100 µM (inactive)
- GI50 [12]: 86.9 µM (inactive)
- GI50 [13]: 53 µM (inactive)
- GI50 [14]: > 100 µM (inactive)
- GI50 [15]: 29.4 µM (inactive)
- GI50 [16]: > 100 µM (inactive)
- GI50 [17]: > 100 µM (inactive)
- GI50 [18]: 30 µM (inactive)
- GI50 [19]: > 100 µM (inactive)
- GI50 [20]: 57.7 µM (inactive)
- GI50 [21]: > 100 µM (inactive)
- GI50 [22]: > 100 µM (inactive)
- GI50 [23]: > 100 µM (inactive)
- GI50 [24]: > 100 µM (inactive)
- GI50 [25]: > 100 µM (inactive)
- GI50 [26]: 92.7 µM (inactive)
- GI50 [27]: > 100 µM (inactive)
- GI50 [28]: 45.6 µM (inactive)
- GI50 [29]: 42.7 µM (inactive)
- GI50 [30]: 42.5 µM (inactive)
- GI50 [31]: > 100 µM (inactive)
- GI50 [32]: > 100 µM (inactive)
- GI50 [33]: > 100 µM (inactive)
- GI50 [34]: 82.6 µM (inactive)
- GI50 [35]: > 100 µM (inactive)
- GI50 [36]: > 100 µM (inactive)
- GI50 [37]: > 100 µM (inactive)
- GI50 [38]: 67.1 µM (inactive)
- GI50 [39]: > 100 µM (inactive)
- GI50 [40]: > 100 µM (inactive)
- GI50 [41]: 64.4 µM (inactive)
- GI50 [42]: 49.1 µM (inactive)
- GI50 [43]: 45.6 µM (inactive)
- GI50 [44]: > 100 µM (inactive)
- GI50 [45]: 74.8 µM (inactive)
- GI50 [46]: > 100 µM (inactive)
- GI50 [47]: 99.8 µM (inactive)
- GI50 [48]: > 100 µM (inactive)
- GI50 [49]: > 100 µM (inactive)
- GI50 [50]: 66.5 µM (inactive)
- GI50 [51]: > 100 µM (inactive)
- GI50 [52]: 33.3 µM (inactive)
- GI50 [53]: > 100 µM
- GI50 [54]: > 100 µM (inactive)
- GI50 [55]: 81.7 µM (inactive)
